Here are results for two compounds from patent US11707456B2, “Processes for preparing arimoclomol citrate and intermediates thereof” (KemPharm Denmark A/S, priority 2020, dated 2023).

The nature of data set [1]: Stability of ORZY-04 on drying at 45° C. in vacuum. Type of data set: physicochemical. The following applies: after 168 h of drying at 45° C. in vacuum. Here is the method:
A citric acid solution was prepared by charging citric acid (15.01 g, […]) and MeOH (100 mL) in a separate container and stirring for 5 min. at 20° C. The citric acid solution was then charged to the container containing the reaction solution, and the mixture was cooled to 0° C. and stirred for at least 12 h at 0° C. ORZY-04 was then isolated by filtration of the obtained suspension, and washed with MeOH (40 mL). Finally, the solids were dried at 45° C. in vacuum. Results

On the set-up of data set [2]: species or system human. The following applies: in vivo, po. An excerpt: The stability permits that the permeability of arimoclomol is high based on urinary recovery in human mass balance trial.

The structures appear in SMILES notation.

`[O-][n+]1cccc(/C(Cl)=N/OC[C@H](O)CN2CCCCC2)c1` [ORZY-04]: the stability on drying result in data set [1] is on record as “stable”. As for `[O-][n+]1cccc(C(Cl)=NOC[C@H](O)CN2CCCCC2)c1` [arimoclomol, N-{[(2R)-2-hydroxy-3-piperidin-1-ylpropyl]oxy}pyridine-3-carboximidoyl chloride 1-oxide], the “drug-related material recovered in faeces” value in data set [2] was 12%.
